Measurements: patent US6930103B2, “Use of vasopeptidase inhibitors in the treatment of metabolic diseases, nephropathy and advanced glycation end-product associated diseases” (Aventis Pharma Deutschland GmbH, priority 2002, dated 2005)

What was measured:
Format in all cases: in vivo, rat
[1] = tested on: Zucker Diabetic Fatty (ZDF) Rats (ZDF Gmi fa/fa); test: Urinary excretion of albumin and creatinine in ZDF rats treated from 10 to 37 weeks of age; conditions: for Urine excretion Albumin / Urine excretion Albumin/Creatinine: ZDF rats, mean
Description: (§1) The protein and creatinine excretion in the urine of male Zucker Diabetic Fatty (ZDF) Rats (ZDF Gmi fa/fa) and heterozygous control animals (ZDF Gmi −/+) of 10, 17, 27 and 37 weeks age was determined. In further groups, diabetic rats were chronically given either ramipril (1 mg/kg/day, in drinking water) or a compound of formula (II-B) (30 mg/kg/day, in food) over a period from 10 to 37 weeks. The animals were sacrificied after 37 weeks, and their kidneys examined histologically.

[2] = tested on: fat ZDF rats; test: Histological examination of kidneys of ZDF rats after 6 months treatment; design: Armanni-Ebstein cells MEAN SEVERITY / Glomerulosclerosis MEAN SEVERITY / Atrophy: renal tubule MEAN SEVERITY / Casts: renal tubule MEAN SEVERITY: scale not given here
Description: as §1
In the attached tables a summary of the findings on the kidneys after a treatment period of 6 months is listed.

[3] = tested on: ZDF rats; test: Urinary albumin/creatinine in ZDF rats, treatment starting at an animal age of 6 months; conditions: start at age 6 months, mean
[4] = tested on: Goto-Kakizaki (GK) rats; test: Albumin and creatinine excretion in Goto-Kakizaki (GK) rats; conditions: start at age 6 months, mean
Description: The albumin and creatinine excretion in Goto-Kakizaki (GK) rats was determined. GK rats are a model for Type II diabetes. One group was left untreated, one was treated with the ACE/NEP inhibitor of formula (II-B) and one group was treated with the ACE inhibitor ramipril. [table]

[5] = tested on: Wistar rats; test: Albumin and creatinine excretion in Wistar rats (non-diabetic nephropathy); conditions: for Albumin/Creatinine: Wistar rats, start at age 6 months, mean
Description: The albumin and creatinine excretion in Wistar rats was determined. One group was left untreated, one was treated with the ACE/NEP inhibitor of formula (II-B) and one group was treated with the ACE inhibitor ramipril. Wistar rats are non-diabetic and develop proteinuria and structural kidney damage during adult life. Wistar rats are therefore a model for non-diabetic nephropathy. [table]

[6] = tested on: ZDF rats; test: Dot blot analysis of kidney AGE subtypes (CML, CEL, pentosidine) in ZDF rats
Description: Kidney AGE values were determined by Dot blot analysis (Stracke et al., Exp. Clin. Endocrinol. Diabets 2002, 109, 330-336) and Reversed-phase high performance liquid chromatography or RP-HPLC (Drusch et al., Food Chem. 1999, 65, 547-553).
Kidney-samples for the dot blot analysis were obtained from 17-week-old male ZDF rats, control rats and ZDF rats treated for seven weeks with 30 mg/kg/d of compound (II-B) and 35 mg/kg/d of compound (III-B). Three animals of each group were sacrificed, the kidneys removed and immediately frozen in liquid nitrogen. Grinding of the kidneys was performed in liquid nitrogen using a freezer mill (Freezer 6750, C3 Analysetechnik GmbH). Kidney sample (10 mg) was dissolved in 1 ml phosphate buffered saline (PBS containing 0.5 g/l Tween 20, 0.5 mM PMSF, […]). The solution was treated two times for five seconds with an ultrasonic cell disrupter (45% power, Bandolin Sonoplus HD 2070), centrifuged for 20 minutes at 4000 rpm and the supernatant was used for dot blot analysis. The nitrocellulose membrane was placed in the dot blot apparatus and washed twice with Tris Buffered Saline (TBS), 100 μl TBS/well. For each sample, 10 μg protein (protein concentration of the samples were determined with the DC Protein Assay, Bio Rad) was diluted in 100 μl TBS and loaded on to the nitrocellulose membrane (Amersham). The membrane was incubated over night in TBS with Tween 20 (TBST; 20 mM Tris, 137 mM NaCl, 0.05% v/v Tween 20) with 5% non-fat dry milk at 4° C. and incubated for 1 hour at room temperature using the following antibody concentration: anti-CML 011 (Biologo) 0.25 μg/ml, anti-CEL (Biologo) 0.25 μg/ml and anti-pentosidine 012 (Biologo) 0.25 μg/ml. After extensive washing in TBST with 5% non-fat dry milk, membranes were exposed to […] anti-mouse IgG antibodies (Dianova) for one hour at room temperature. Membranes were washed again and exposed to the enhanced chemofluorescence detection system (Amersham) according to manufacturer's instructions. Relative fluorescence was determined with the Fluor-Imager 595 (Molecular Dynamics) and quantified using the Image-Quant software. Results were expressed in relative fluorescence (rf) times 10^5 (rf*10^5).

[7] = tested on: Zucker diabetic fatty rats; test: HbA1c analysis in ZDF rats; conditions: for HbA1c, mean: ZDF rats
Description: Blood glucose and HbA1c was measured in 10- and 17-week-old male Zucker diabetic fatty rats (Genetic Model Inc.), control rats (Genetic Model Inc.) and male ZDF rats treated for seven weeks with 30 mg/kg/d of compound (II-B), 35 mg/kg/d of compound (III-B) and 1 mg/kg/d ramipril. Fifteen animals were analyzed in each group.
To obtain blood samples for HbA1c determination, disposable capillary tubes were used. HbA1c values were obtained from hemolyzed whole blood samples with a turbidimetric inhibition immunoassay (Tina-quant, Roche Diagnostics GmbH) and hemoglobin concentrations were determined in a second channel on an automated clinical chemistry analyzer (Boehringer Mannheim/Hitachi 912). HbA1c concentration in percent were calculated from HbA1c to total hemoglobin.

[8] = kidneys, male fat ZDF rats, terminal sacrifice
[9] = kidneys, male fat ZDF rats, terminal sacrifice, examined: D1 9, D4 8
[10] = kidneys, male fat ZDF rats, terminal sacrifice, examined: D1 9, D4 8, listed as compound (II-B)
[11] = 17-week-old ZDF rats treated for seven weeks, dot blot

With `CC(=O)S[C@H](C(=O)N[C@H]1Cc2ccccc2[C@H]2CCC[C@@H](C(=O)O)N2C1=O)C(C)C` [cpd. (II-B)] the “Urine excretion Albumin” value ([1]; week 0 of treatment) was 0.27 mg/kg/h, the “Urine excretion Albumin/Creatinine” value ([1]; week 0 of treatment) was 48.56 mg/mmol and the “Urine excretion Albumin” value ([1]; week 7 of treatment) was 0.09 mg/kg/h. The “Urine excretion Albumin/Creatinine” value ([1]; week 7 of treatment) was 14.30 mg/mmol, the “Urine excretion Albumin” value ([1]; week 17 of treatment) was 0.41 mg/kg/h and the “Urine excretion Albumin/Creatinine” value ([1]; week 17 of treatment) was 44.63 mg/mmol. For the same molecule, the “Urine excretion Albumin” value ([1]; week 27 of treatment) was 1.39 mg/kg/h, the “Urine excretion Albumin/Creatinine” value ([1]; week 27 of treatment) was 152.71 mg/mmol and the “Effect relative to the ACE inhibitor ramipril” value ([1]; nephroprotective effect, compared with ramipril) was 6-8 fold. The “Armanni-Ebstein cells GRADE 2: number of animals” value [2, 8] was 5, the “Armanni-Ebstein cells GRADE 3: number of animals” value [2, 8] was 3 and the “Armanni-Ebstein cells MEAN SEVERITY” value [2, 8] was 2.4. The “Atrophy: renal tubule GRADE 1: number of animals” value [2, 8] was 1, the “Atrophy: renal tubule GRADE 3: number of animals” value [2, 8] was 1 and the “Atrophy: renal tubule MEAN SEVERITY” value [2, 8] was 2.0. The “Casts: renal tubule GRADE 1: number of animals” value [2, 8] was 2, the “Casts: renal tubule GRADE 2: number of animals” value [2, 8] was 1 and the “Casts: renal tubule MEAN SEVERITY” value [2, 8] was 1.3. The “Glomerulosclerosis GRADE 1: number of animals” value [2, 8] was 1, the “Glomerulosclerosis GRADE 3: number of animals” value [2, 8] was 1 and the “Glomerulosclerosis MEAN SEVERITY” value [2, 8] was 1.0. For the same molecule, the “Armanni-Ebstein cells: number of animals with finding (total affected)” value [2, 9] was 8, the “Atrophy: renal tubule: number of animals with finding (total affected)” value [2, 9] was 2 and the “Casts: renal tubule: number of animals with finding (total affected)” value [2, 9] was 3. For the same molecule, the “Glomerulosclerosis: number of animals with finding (total affected)” value [2, 9] was 1, the “Atrophy: renal tubule: number of animals with finding (total affected)” value [2, 10] was “low incidences” and the “Casts: renal tubule: number of animals with finding (total affected)” value [2, 10] was “low incidences”. For the same molecule, the “Glomerulosclerosis: number of animals with finding (total affected)” value [2, 10] was “not present”, the “Dilatation: pelvis GRADE 2: number of animals” value ([2]; rat, in vivo) was 1 and the “Dilatation: pelvis GRADE 3: number of animals” value ([2]; rat, in vivo) was 5. The “Dilatation: pelvis GRADE 4: number of animals” value ([2]; rat, in vivo) was 1, the “Dilatation: pelvis MEAN SEVERITY” value ([2]; rat, in vivo) was 3.0 and the Albumin/Creatinine ([3]; 6 weeks treatment) was 135.08 mg/mmol. The Albumin/Creatinine ([3]; 12 weeks treatment) was 100.86 mg/mmol, the Albumin/Creatinine ([3]; Basal) was 1330.99 mg/mmol and the Albumin/Creatinine ([4]; 6 weeks treatment) was 17.70 mg/mmol. It also gave an Albumin/Creatinine ([4]; 12 weeks treatment) of 24.28 mg/mmol, an Albumin/Creatinine ([4]; Basal) of 103.95 mg/mmol and an Albumin/Creatinine ([5]; 6 weeks treatment) of 18.07 mg/mmol. For the same molecule, the Albumin/Creatinine ([5]; 12 weeks treatment) was 21.21 mg/mmol, the Albumin/Creatinine ([5]; Basal) was 130.45 mg/mmol and the “Nephroprotective effect compared with ramipril as determined by the extent of proteinuria” value ([5]; non-diabetic model, in words) was “significantly higher nephroprotective effect than ramipril”. For the same molecule, the “AGE-subtype CEL in the kidneys (anti-CEL), mean” value [6, 11] was 50.24 rf * 10^5, the “AGE-subtype CML in the kidneys (anti-CML 011), mean” value [6, 11] was 32.62 rf * 10^5 and the “AGE-subtype pentosidine in the kidneys (anti-pentosidine 012), mean” value [6, 11] was 44.99 rf * 10^5. For the same molecule, the “Kidney AGE (Nε-(carboxymethyl)lysine or CML) values” ([6]; diabetic rats, summary in words) was “normalizes”, the “AGE values for subtype CEL compared to untreated ZDF rats” value ([6]; kidney, dot blot, in words) was “significantly less” and the “AGE values for subtype CML compared to untreated ZDF rats” value ([6]; kidney, dot blot, in words) was “significantly less”. The “AGE values for subtype pentosidine compared to untreated ZDF rats” value ([6]; kidney, dot blot, in words) was “significantly less”, the “HbA1c values compared to the untreated ZDF rats” value ([7]; 17-week-old ZDF rats, in words) was “significantly lower” and the “HbA1c, mean” value ([7]; age 10 weeks (start of treatment)) was 5.69%. For the same molecule, the “HbA1c, mean” value ([7]; age 17 weeks (treated for seven weeks)) was 8.24% and the “HbA1c value compared with the ACE inhibitor ramipril” value ([7]; in words) was “lower values”.
